Laboratory results: paper PMC7496275, “Pentathiepins: A Novel Class of Glutathione Peroxidase 1 Inhibitors that Induce Oxidative Stress, Loss of Mitochondrial Membrane Potential and Apoptosis in Human Cancer Cells” (Chemmedchem, 2020)
Like-named read-outs stand apart in the source and are kept apart here. Each block holds one compound with its values, some of them ahead of it.

What was measured:
bovine erythrocyte GPx = target: T1, bovine erythrocyte GPx (Bos taurus, UniProt P00435); test: GPx enzyme activity assay (TBHP/GSH, GR/NADPH coupled); assay type: biochemical; conditions: 23 °C; n>3; 0.25 mM GSH; read-out: Enzyme inhibition IC50 (CI 95 %)
T1 construct: 180 μL of a bovine erythrocyte GPx1 solution (0.125 U/mL); purchased Sigma Aldrich (Taufkirchen, Germany); host or cells: bovine erythrocytes
T1 sequence (P00435 1-205): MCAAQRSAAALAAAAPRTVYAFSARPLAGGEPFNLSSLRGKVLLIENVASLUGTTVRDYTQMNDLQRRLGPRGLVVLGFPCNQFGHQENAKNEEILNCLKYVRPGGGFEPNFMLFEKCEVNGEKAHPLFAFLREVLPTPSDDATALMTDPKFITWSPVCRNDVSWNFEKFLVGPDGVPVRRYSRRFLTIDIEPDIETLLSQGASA
Procedure: The ability of pentathiepins to inhibit the bovine erythrocyte GPx activity was assayed for by an established enzyme method, which is based on the GPx‐dependent reduction of tert‐butyl hydroperoxide (TBHP) by GSH, leading to the formation of GSSG, which is coupled to the reduction of GSSG back to GSH by glutathione reductase (GR) and the oxidation of NADPH to NADP^+[10] (Figure 1). Inhibition potencies of the compounds were ranked by their IC50 values; that is, concentration of the inhibitor at the inflection point in the sigmoidal log dose‐inhibition curve (Figure 4A), and are summarized for the pentathiepins and mercaptosuccinic acid (MSA) in Table 1.
GPx enzyme activity assay: To evaluate if the various compounds could inhibit GPx1, an enzymatic assay monitoring the activity of the bovine erythrocyte GPx was used as described previously.33 Bovine erythrocyte GPx is highly homologous to the human GPx1 (homology of 87 %)34 but much more affordable. In this assay, GPx reduces tert‐butylhydroperoxide (TBHP) followed by oxidation of glutathione (GSH) to the disulfide (GSSG), which in turn is regenerated to GSH by glutathione reductase (GR) with the consumption of NADPH. To each well of a UV‐transparent 96‐well plate were added 180 μL of a bovine erythrocyte GPx1 solution (0.125 U/mL) and 30 μL of prospective inhibitor in different concentrations diluted in DMF and incubated under shaking for 15 min at room temperature. Then 30 μL of stock solutions of GSH (2.5 mM) and baker's yeast GR plus NADPH (2 U/mL; 2.0 mM) were added. All stock solutions were prepared in potassium phosphate buffer (50 mM, pH 7.4, EDTA 1.1 mM, Triton‐X 0.01 %). The reaction was started by addition of TBHP solution (5 mM), giving final concentrations of 0.075 U/mL bovine erythrocyte GPx, 0.2 U/mL GR, 0.25 mM GSH, 0.2 mM NADPH and prospective inhibitor concentrations between 0.2–100 μM. The reaction was followed by the rate of decreasing absorption of the NADPH at λ=340 nm, measured every 15 s for ca. 20 min. The GPx activity related to untreated control was imported into the GraphPad Prism 6.0 software and the IC50 values were calculated by estimating the inflection point of the sigmoidal log concentration‐activity curves.

SISO cells [1] = test: Alkaline comet assay; assay type: cell-based, human; conditions: 15 min at 0 °C
Procedure: (§1) To assess the induction of DNA strand breaks by pentathiepin 4 the Comet Assay was used. The SISO and HAP‐1 cell lines were treated with either 1 % DMF (solvent control), 20 μM H2O2 (positive control) or 25 μM 4 for 15 min at 0 °C. The DNA in the comet head corresponds to still intact genomic DNA while the tail forms due to the damage of nuclear DNA (Figure 9B). […] For HAP‐1 cells a greater reduction of intact DNA from 86 % in control cells to 66 % in pentathiepin‐incubated cells was observed.
(§2) Alkaline comet assay to assess induction of DNA strand breaks: The method was adapted from Olive and Banath.40 The alkaline protocol allows for the detection of single and double strand breaks as well as alkali‐labile sites and is based on the different electrophoretic mobility of intact and damaged nuclear DNA. […] The induction of strand breaks creates free charged ends that drift out and form the characteristic comet tail. The percentage of DNA that is located in the comet head was selected as descriptor, which corresponds to the amount of still intact genomic DNA.
(§3) Briefly, SISO and HAP‐1 cells were harvested by trypsinization and a single cell suspension with 50 000 cells per mL PBS was prepared. Per condition 50 000 cells were incubated on ice (to impair DNA repair) with either the solvent control DMF (1.0 %), 20 μM H2O2 or 25 μM 4 for 15 min. Afterwards, 400 μL of the cell suspension were mixed with 1.2 mL 1 % low melting point agarose (Carl Roth, Germany) at 40 °C and evenly distributed on agarose‐precoated (GeneOn, Germany) glass slides (Thermo Fisher). After 3 min polymerization the slides were horizontally submerged in lysis buffer (1.2 M NaCl (Carl Roth, Germany), 0.1 % N‐Lauryl‐Sarcosinate (Merck), 0.1 M Na‐EDTA, 0.26 M NaOH) and placed at 4 °C overnight. Before electrophoresis at 0.6 V/cm for 25 min the slides were rinsed three times in rinse/electrophoresis buffer (0.002 M Na‐EDTA, 0.03 M NaOH). Afterwards, the slides were neutralized in distilled water and subsequently stained with 250 μL of a 10 μg/mL PI in water solution for 20 min. Finally, the slides were analyzed with a Leica DMi8 fluorescent microscope and LASX software (Leica, Germany) and comets were scored with CometScore 2.0 (Rex A. Hoover, www.rexhoover.com). At least 100 comets were scored per condition.

[2] = tested on: SISO human cervix cancer cell line; test: Crystal violet proliferation assay; assay type: cell-based; conditions: 37 °C, 96 h, n>4, read-out: Inhibition of cell viability GI50 (CI 95 %)
Procedure: GI50 values for 50 % growth inhibition were all in a low micro molar range (Table 1). […] The indole−pentathiepins gave lower GI50 values than the pyrrolo[1,2‐a]quinoxaline derivatives. […] There was also a trend showing that an electron rich substituent in position R^2 increased the antiproliferative effect in SISO cells.
Crystal violet proliferation assay: To measure cell growth inhibition, the crystal violet assay was carried out as previously described.37 Adherent cell lines were seeded out in a 96‐well plate (1000 cells per 200 μL culture medium) and allowed to attach for 24 h. Cells were exposed to nine serial dilutions of compound, added to the medium from 1000‐fold concentrated stock solutions in DMF. For the controls, cells were exposed to 0.1 % DMF alone. After addition of compounds, plates for the detection of the starting point of the proliferation at incubation time zero (t 0) were stopped with glutaraldehyde (see below), washed with Dulbecco's buffer (containing KCl 0.2 g/L, MgSO4 ⋅ 7 H2O 0.1 g/L, Na2HPO4 ⋅ >7 H2O 1.55 g/L, KH2HPO4 0.2 g/L and NaCl 8 g/L in water) and stored at 4 °C until the staining procedure. Treated cells were incubated for 96 h in the incubator, the medium was removed and replaced with 100 μL of 1 % glutaraldehyde in Dulbecco's buffer for 20 min. After washing twice with 150 μL of Dulbecco's buffer, the buffer was removed and replaced with 100 μL of a 0.02 % crystal violet solution dissolved in water for 30 min and subsequently washed in tap water for 15 min. Water was removed and replaced with 100 μL of ethanol (70 % in water) followed by shaking on a 96‐well shaker (MS3 digital, IKA‐Werke, Germany) for 2 h. Optical density was measured with a SpectraMax Plus 383 microtiter plate reader at λ=570 nm (Molecular Devices, USA). The optical density of t 0 plates at the time of treatment were subtracted from optical densities of plates with treated cells after 96 h (T), and the growth inhibition relative to untreated, control cells (C) as described.22 Growth inhibition concentrations at 50 % (GI50) were calculated by determining the inflection point of the sigmoidal log dose‐growth inhibition (%T/C) curves with the GraphPad Prism 6.0 software.

HAP-1 cells [3] = test: Alkaline comet assay; assay type: cell-based, human; conditions: 20 μM positive control, 15 min at 0 °C
Procedure: as §1, §2, §3

HAP-1 cells [4] = test: Fluorescence microscopy of mitochondrial membrane potential (JC-1); assay type: cell-based, human; conditions: positive control, 2.5 μg/L, 1 h
bovine GPx1 = target: T2, bovine GPx1 (Bos taurus, UniProt P00435); test: Jump-dilution experiments for reversibility of GPx1 inhibition; assay type: biochemical; conditions: 30 min pre-incubation at 23 °C, 100-fold jump-dilution
T2 construct: 180 μL of a bovine erythrocyte GPx1 solution (0.125 U/mL); purchased Sigma Aldrich (Taufkirchen, Germany); host or cells: bovine erythrocytes
T2 sequence (P00435 1-205): T1 sequence (P00435 1-205)
Procedure: No difference in the inhibitory activity of 4 after jump‐dilution (Figure 4B left, a) was observed compared to expected inhibition at 0.25 μM (Figure 4B left, 0.25 μM), evidence that GPx1 inhibition is reversible. […] This is consistent with findings that MSA can act as an irreversible inhibitor of GPx1.11 In further jump‐dilution experiments, we pre‐incubated both inhibitors with the assay concentrations of either GSH and TBHP (a, d) or GSH only (b, e), with (a–c) and without (d–f) GPx1 for 30 min.
The jump‐dilution experiments were carried out in a 96‐well plates at room temperature. To each well was added 75 μL of a 20 IU mL^−1 GPx stock‐solution followed by the addition of 3 μL of a 2.5 mM solution of 4 in DMF and 30 μL of a 2.5 mM solution of GSH in buffer or 30 μL of a 2.5 mM solution of GSH in buffer and 30 μL of a 5 mM solution of TBHP in water and 300 μL buffer. The plates were shaken for 30 min in the dark, then each well was diluted 100 fold into a second plate prepared for the GPx‐assay. The enzyme activity was immediately measured as described above.

human GPx = test: GPx activity assay with human cancer cell lysates (SISO); assay type: biochemical; conditions: inhibitor at its IC50 for bovine GPx, 0.5 mM GSH
Procedure: To investigate whether the pentathiepins have an inhibitory effect on human GPx, cell lysates of the human cervix cancer cell line SISO, which expresses high levels of GPx1 (see below), were incubated with either 4 or MSA in concentrations of the IC50 value for the inhibitory effect on bovine GPx1.
To measure the inhibition of human GPx activity, the enzyme assay was adapted to use human cancer cell lysates in place of the bovine enzyme. A quantity of 100 μg cellular protein (determined according to the Bradford method) per well was used. Due to the large consumption of cell lysates, just the inhibitory effect on GPx at one concentration of pentathiepin was determined in primary screening. The concentration of GSH was raised to a concentration of 0.5 mM to increase the velocity of the reaction, all other conditions were unchanged. The rates of NADPH oxidation were normalized to the solvent control. […] We used 100 μg protein of lysates and added GSH up to final concentrations between 0.375–3 mM. The rates of the GPx activity were calculated by nonlinear regression and the fitted with the GraphPad Prism 6.0 software: “Enzyme kinetics – Substrate vs. Velocity (Michaelis‐Menten)”.

SISO cells [5] = test: Fluorescence microscopy for lipid peroxidation (BODIPY 581/591); assay type: cell-based, human; conditions: 100 μM positive control, 24 h
Procedure: In another set of experiments, LPO was visualized by fluorescence microscopy with a dye for lipid peroxides, BODIPY 581/591. […] Together, our results point to apoptosis and not ferroptosis as the mechanism of cell death induced by 4.
Fluorescence microscopy for the detection of lipid peroxidation: SISO cells (250 000 cells) were seeded out in 6‐well plates with an inserted coverslip. Cells were allow to attach for 24 h and then exposed to 25 μM 4 or 100 μM tert‐butyl‐hydroperoxide as a positive control. After 24 h coverslips were washed with PBS and stained with 1 μM BODIPY 581/591 in culture medium for 30 min. Cells on the coverslips were then mounted and examined with a Leica DMi8 fluorescence microscope at λ ex/em=460–500/512–542 nm for the oxidized BODIPY 581/591 and λ ex/em=540–581/592–668 for the reduced form.

- IC50 (bovine erythrocyte GPx): 1760 nM
SMILES: CCOc1c2c(c3cnc4ccccc4n13)SSSSS2 [Compound 1]

- IC50 (bovine erythrocyte GPx): 520 nM
SMILES: CCOc1c2c(c3cnc4cc(C)ccc4n13)SSSSS2 [Compound 2, 12‐Ethoxy‐3‐methyl‐[1,2,3,4,5]pentathiepino[6′,7′ : 3,4]pyrrolo[1,2‐a]quinoxaline]

- IC50 (bovine erythrocyte GPx): 470 nM
SMILES: CCOc1c2c(c3c(C(F)(F)F)nc4cc(C)ccc4n13)SSSSS2 [Compound 3, 12‐Ethoxy‐3‐methyl‐6‐(trifluoromethyl)‐[1,2,3,4,5]pentathiepino[6′,7′ : 3,4]pyrrolo[1,2‐a]quinoxaline]

- IC50 (bovine erythrocyte GPx): 1860 nM
SMILES: CCOc1c2c(c3c(C(F)(F)F)nc4cc(C)c(C)cc4n13)SSSSS2 [Compound 5, 12‐Ethoxy‐2,3‐dimethyl‐6‐(trifluoromethyl)‐[1,2,3,4,5]pentathiepino[6′,7′ : 3,4]pyrrolo[1,2‐a]quinoxaline]
- percentage of undamaged (intact) DNA in comet head (SISO cells [1]; 25 μM): 80%

- GI50 ([2]; Homo sapiens): 3500 nM
- IC50 (bovine erythrocyte GPx): 950 nM
SMILES: Cn1c2c(c3ccccc31)SSSSS2 [Compound 6, 6‐Methyl‐6H‐[1,2,3,4,5]pentathiepino[6,7‐b]indole]

- GI50 ([2]; Homo sapiens): 1500 nM
- IC50 (bovine erythrocyte GPx): 400 nM
SMILES: CCn1c2c(c3cc(Cl)ccc31)SSSSS2 [Compound 7, 9‐Chloro‐6‐ethyl‐6H‐[1,2,3,4,5]pentathiepino[6,7‐b]indole]

- GI50 ([2]; Homo sapiens): 1400 nM
- IC50 (bovine erythrocyte GPx): 830 nM
SMILES: c1ccc(Cn2c3c(c4ccccc42)SSSSS3)cc1 [Compound 8, 6‐Benzyl‐6H‐[1,2,3,4,5]pentathiepino[6,7‐b]indole]

SMILES: OO [Compound H2O2, hydrogen peroxide, reference compound]
- intact DNA in comet head (SISO cells [1]; 20 μM positive control): significant decreases of intact DNA
- intact DNA in comet head (HAP-1 cells [3]): significant decreases of intact DNA

SMILES: N#CC(C#N)=NNc1ccc(OC(F)(F)F)cc1 [FCCP, carbonyl cyanide‐p‐trifluoromethoxyphenylhydrazone]
- mitochondrial membrane potential (MMP) (HAP-1 cells [4]): complete loss of MMP

SMILES: O=C(O)CC(S)C(=O)O (stereo not shown) [MSA, mercaptosuccinic acid, reference compound]
- GI50 [2]: 57100 nM
- IC50 (bovine erythrocyte GPx): 5860 nM
- reversibility of GPx1 inhibition (bovine GPx1): some irreversible inhibition had occurred
- inhibition of GPx activity (human GPx): 60%

SMILES: CC(C)(C)OO [tBuOOH, reference compound]
- lipid peroxidation (LPO) (SISO cells [5]): showed LPO
